These results are taken from article PMC8717867, “The Oxidation Cascade of a Rare Multifunctional P450 Enzyme Involved in Asperterpenoid A Biosynthesis” (Frontiers in Chemistry, 2021).

The target in the experiment is T1, mPTPB (Mycobacterium tuberculosis protein tyrosine phosphatase B) (Mycobacterium tuberculosis, UniProt I6WXK4).
T1 construct: gene ptpB
Briefly: biochemical. Conditions: read-out: 50 uM inhibition rate (%). The arrangement: mPTPB phosphatase inhibition, pNPP substrate, absorbance at 405 nm.

T1 sequence (I6WXK4 whole entry, looked up): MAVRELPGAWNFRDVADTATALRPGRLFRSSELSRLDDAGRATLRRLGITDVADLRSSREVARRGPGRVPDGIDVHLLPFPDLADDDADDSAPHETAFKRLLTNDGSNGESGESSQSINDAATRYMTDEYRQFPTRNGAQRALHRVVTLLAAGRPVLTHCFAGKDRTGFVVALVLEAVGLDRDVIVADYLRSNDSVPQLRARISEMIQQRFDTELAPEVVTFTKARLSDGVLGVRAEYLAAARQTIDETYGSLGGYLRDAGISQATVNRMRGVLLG

Consider `CC(C)[C@H]1CC[C@@]2(C)CC[C@]3(CO)CC4=C(C(=O)O)CC[C@H]4[C@]4(C)C[C@@H]4[C@H]3[C@H]12` [asperterpenoid A], for which the inhibition (in general, how much of the control response was suppressed) at 50 µM is 98.2%. Under `CC(C)[C@H]1CC[C@@]2(C)CC[C@]3(C(=O)O)CC4=C(C(=O)O)CC[C@H]4[C@]4(C)C[C@@H]4[C@H]3[C@H]12` [asperterpenoid B] stands 98.9%; under `CC(C)[C@H]1C[C@@H](O)[C@@]2(C)CC[C@]3(CO)CC4=C(C(=O)O)CC[C@H]4[C@]4(C)C[C@@H]4[C@H]3[C@H]12` [asperterpenoid C], 45.1%.

For the compound `CC(C)C1CCC2(C)CCC3(C)CC4=C(C(=O)O)CCC4C4(C)CC4C3C12` (stereo not shown) [compound 1, asperterpenoid D], the inhibition at 50 µM was 52.8%. Under `CC(C)C1CCC2(C)CCC3(C)CC4=C(CO)CCC4C4(C)CC4C3C12` (stereo not shown) [compound 2, asperterpenoid E] stands 46.8%. The result for `CC(C)C1CCC2(C)CCC3(CO)CC4=C(CO)CCC4C4(C)CC4C3C12` (stereo not shown) [compound 3, asperterpenoid F] reads 48%. The result for `CC1=C2C[C@@]3(C)CC[C@]4(C)CC[C@H](C(C)C)[C@H]4[C@@H]3[C@H]3C[C@@]3(C)[C@@H]2CC1` [preasperterpenoid A] reads 31.1%.
